The source of these data is ChEMBL document CHEMBL5042484, “Design of SARS-CoV-2 PLpro Inhibitors for COVID-19 Antiviral Therapy Leveraging Binding Cooperativity” (J Med Chem, 2022).

pEC50: −log10 of the molar value.

This test has as its system SARS-CoV-2. The experiment in a line: Antiviral activity against SARS-COV-2 USA/WA1/2020 in human A549 cells overexpressing ACE2 receptor assessed as reduction in viral replication at MOI of 0.01 pretreated for 1 hr followed by viral infection and further incubated for 1 hr measured after 48 hrs by RT-qPCR analysis. The class given is functional, organism-based. As to conditions: Severe acute respiratory syndrome coronavirus 2, USA/WA1/2020, A549.
`Cc1ccc(NC2CNC2)cc1C(=O)N[C@H](C)c1cccc(-c2ccc(CNC3CCCC3)s2)c1`: the pEC50 is 5.85.
Take `Cc1ccc(NC2CNC2)cc1C(=O)N[C@H](C)c1cccc(-c2ccc(CN3CCCC3)s2)c1`: the pEC50 is 5.92.
As to `Cc1ccc(N)cc1C(=O)N[C@H](C)c1cccc2ccccc12`, the pEC50 is under 4.70.
